Literature values in patent US20100055173A1, “RELEASE OF STATINS IN THE INTESTINE” (priority 2006, published 2010).
Where two headings read alike, the source gives them in different places.

Legend:
[1] = test system: plasma proteins; details: primarily to albumin
[2] = target: T1, HMG-CoA reductase (Homo sapiens, UniProt P04035); details: considering the beta-hydroxy acid form as the drug
T1 sequence (P04035 1-888): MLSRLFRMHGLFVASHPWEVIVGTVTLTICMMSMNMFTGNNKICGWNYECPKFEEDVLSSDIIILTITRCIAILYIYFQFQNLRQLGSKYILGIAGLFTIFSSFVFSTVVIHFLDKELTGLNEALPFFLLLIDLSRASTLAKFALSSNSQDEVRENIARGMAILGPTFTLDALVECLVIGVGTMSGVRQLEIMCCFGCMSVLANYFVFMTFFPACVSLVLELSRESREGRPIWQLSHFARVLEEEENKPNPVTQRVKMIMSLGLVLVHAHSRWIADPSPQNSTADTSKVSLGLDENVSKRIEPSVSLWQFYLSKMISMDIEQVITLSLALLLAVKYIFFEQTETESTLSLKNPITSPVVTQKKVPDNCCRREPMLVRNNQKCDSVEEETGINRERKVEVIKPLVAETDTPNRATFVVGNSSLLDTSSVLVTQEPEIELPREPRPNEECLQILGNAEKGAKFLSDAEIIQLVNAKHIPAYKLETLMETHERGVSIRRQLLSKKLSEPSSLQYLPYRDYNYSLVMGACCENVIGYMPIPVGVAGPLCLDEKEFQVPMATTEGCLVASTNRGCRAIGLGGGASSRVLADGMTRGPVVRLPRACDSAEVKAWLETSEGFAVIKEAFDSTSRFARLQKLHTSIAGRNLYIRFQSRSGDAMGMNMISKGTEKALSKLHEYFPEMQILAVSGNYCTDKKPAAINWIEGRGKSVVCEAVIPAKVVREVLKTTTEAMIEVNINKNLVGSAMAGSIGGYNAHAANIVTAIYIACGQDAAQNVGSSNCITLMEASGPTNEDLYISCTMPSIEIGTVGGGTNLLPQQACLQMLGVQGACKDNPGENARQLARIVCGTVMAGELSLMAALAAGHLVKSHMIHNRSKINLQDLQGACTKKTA

HMG-CoA reductase activity retained [2] | SMILES | bound to plasma proteins [1] | bound to plasma proteins ([1]; listed as Simvastatin)
 | CCC(C)(C)C(=O)O[C@H]1C[C@@H](C)C=C2C=C[C@H](C)[C@H](CC[C@@H]3C[C@@H](O)CC(=O)O3)[C@H]21 [simvastatin] | More than 98% | more than 95%
approximately 40% | CCC(C)(C)C(=O)O[C@H]1C[C@@H](CO)C=C2C=C[C@H](C)[C@H](CC[C@@H]3C[C@@H](O)CC(=O)O3)[C@H]21 [6-beta-hydroxymethyl, 6-beta-hydroxymethyl simvastatin] |  | 
 | CCC(C)(C)C(=O)O[C@H]1C[C@@H](C)C=C2C=C[C@H](C)[C@H](CC[C@@H](O)C[C@@H](O)CC(=O)O)[C@H]21 [open hydroxyl acid form, β-hydroxyacid-simvastatin] | 94.5% | 
~50% | CCC(C)(C)C(=O)OC1CC(C)(O)C=C2C=CC(C)C(CCC3CC(O)CC(=O)O3)C21 (stereo not drawn) [6-beta-hydroxy simvastatin] |  | 
